Common to all, as to format: cell-based, human
Test [1] deals with HeLa cells. The experiment in a line: DNA damage, immunoblot of γ-phosphorylation of histone H2A.X. The settings on record: various doses, 12 hour. The protocol:
The anthracyclin antibiotic agent doxorubicin (DXR) is an active cytotoxic reagent with a wide range of clinical indications, including treatment of solid tumors in the ovary, breast, and gastrointestinal systems, as well as treatment of liquid tumors such as leukemia. […] Specifically, HeLa cells were treated with NSC745885 at various doses for 12 hour. The phosphorylation of γ-H2A.X was subsequently detected by the immunoblot.
(§1) Cell lysates were prepared in lysis buffer (100 mM Tris-HCl pH 8.0, 150 mM NaCl, 0.1% SDS, and 1% Triton 100) at 4° C., separated by sodium dodecyl sulfate-polyacrylamide gel electrophoresis (SDS-PAGE), and then transferred onto a polyvinylidine difluoride membrane (Millipore, USA). Proteins were detected using antibodies against alpha actinin (ACTN), proliferating cell nuclear antigen (PCNA), p53, p21, cyclin B1, and cyclin D1 (Santa Cruz Biotechnology, USA), YH2A.X (EP854(2)Y, Epitomics, USA), cleaved caspase 3, cleaved poly(ADP-ribose) polymerase (PARP) and LC3B-II (Cell signaling, USA).
(A western blot detects proteins with antibodies after separation by electrophoresis.)

In test [2] the test system is HeLa cells. Nature of the test: Cell cycle profile by FACS. The text has this: Cell cycle arrest is an important damage surveillance mechanism. […] Treating the cells with NSC745885 caused 47-58% of cells to arrest in sub-G1, which is indicative of cell death. This effect was dose- and time-dependent (FIG. 3, Panel B).
A general note: Flow cytometry measures light scatter and fluorescence of single cells or particles in a stream.

The subject of test [3] is HeLa cells. The experiment in a line: Apoptosis: cleaved PARP and caspase 3 immunoblot, DNA fragmentation gel. The settings on record: various doses, 16 hours. The procedure:
It is well noted that DXR can induce cardiomyocyte death by apoptosis and necrosis. DXR is also involved in other types of cellular processes, such as autophagy and senescence/aging. To investigate induction of apoptosis caused by NSC745885, we adopted DXR as a positive control and examined the levels of cleaved PARP and caspase 3 as apoptotic indicators using immunoblot (FIG. 4A), as well as DNA fragmentation using agarose gel electrophoresis (FIG. 4B). HeLa cells were treated with either DXR or NSC745885 at various doses for 16 hours. Subsequently, the total cellular protein was extracted and immunoblotted with antibodies against the cleaved types of PARP and caspase 3. Additionally, genomic DNA was isolated and analyzed by 2% agarose gel electrophoresis followed by ethidium bromide staining. The results (FIG. 4A and FIG. 4B) are representative of three independent experiments. […] Treatment with NSC745885 decreased protein stability, an effect that appeared to be selective, and was confirmed in other immunoblot analyses (shown in FIG. 6A, lanes 1 and 6).
as §1

Test [4] has as its system HeLa cells. The experiment in a line: Autophagy: LC3B-II immunoblot. Particulars: 12 hours. The procedure:
as §1
Altered intracellular localization of LC3B (LC3B-I) and increased electrophoretic mobility of LC3B (LC3B-II) are correlated with recruitment to autophagic membranes and can be used as molecular markers for autophagic activation.
In FIG. 5A, HeLa cells were treated with the indicated concentrations of DXR, NSC745885 for 12 hours, and then cell lysates were analyzed by immunoblot using antibodies directed against LC3. The results are representative of three independent experiments.

Test [5] has as its system HeLa cells. Nature of the test: Autophagosome formation, GFP-LC3 fluorescence microscopy. The settings on record: HeLa cells transfected with GFP-LC3; 2.5 μM NSC745885, 12 hours. The protocol: In FIG. 5B, HeLa cells were transfected with 0.25 μg of an expression vector for GFP-LC3 for 24 hours and then treated with 2.5 μM NSC745885 for 12 hours. […] Vehicle (DMSO) and spermidine (Spd) were used as a negative and positive control, respectively.
(§2) In FIGS. 5C and 5D, HeLa cells were incubated with 2.5 μM NSC745885 for 24 hours. After 48 hours, cells were subjected to SA-β-galactosidase staining (FIG. 5C) and approximately 100 stained cells were quantified (*P<0.05; ** P<0.01; *** P<0.005). NSC745885 induced senescence at a rate of 25% (P=0.0085 compared to DMSO). (FIG. 5D) LC3B-I fragments were observed when the cells were exposed to the drug for longer period of time (FIG. 5A, panel labeled as LE). […] We also treated Hela cells with the autophagy inducer spermidine (Spd) and vehicle (DMSO), which act as the positive and the negative control, respectively.

Test [6] concerns HeLa cells. The experiment in a line: Senescence-associated β-galactosidase staining. The settings on record: DXR at low concentrations. The procedure:
Cultured cells were washed in PBS (pH 7.4), incubated in a solution of 2% formaldehyde/0.2% glutaraldehyde, and then incubated overnight at 37° C. in freshly prepared staining solution consisting of 1 mg/mL X-gal (5-bromo-4-chloro-3-indolyl-β-D-galactoside), 5 mM K3Fe(CN)6, 5 mM K4Fe(CN)6, 150 mM NaCl and 2 mM MgCl2 in 40 mM citric acid/sodium phosphate, pH 6.0. Following this incubation, cells were washed with water and examined by light microscopy at 200× magnification.
as §2

Test [7] concerns p53-dependent reporter (pG13-LUC). The experiment in a line: p53-dependent reporter (pG13-LUC) luciferase assay. The settings on record: HeLa cells co-transfected with Zac1 expression vector. The protocol: (§3) HeLa and HeLa/shp53 cells were grown in DMEM supplemented with 10% charcoal/dextran-treated fetal bovine serum. Cells in a 24-well plate were transfected with jetPEI (PolyPlus-transfection, France) according to the manufacturer's protocol; total DNA was adjusted to 1.0 μg by the addition of empty vector DNA. Luciferase assays were performed using the Promega Luciferase Assay kit, and the measurement was expressed numerically as relative light units (RLU). Luciferase activities were presented as means and standard deviation of two transfected sets. […] Instead, the reproducibility of the observed effects on luciferase activity was determined in multiple independent transfection experiments.
HeLa cells infected with human papillomavirus and expressing the E6 oncoprotein, which maintains endogenous wild-type p53 at a very low concentration, are used as a model system for studying human cervical tumorigenesis. In order for us to confirm the effects of DXR and NSC745885 on endogenous p53, HeLa cells were transiently transfected with a p53-dependent reporter (pG13-LUC) (FIG. 7A) and a p21 promoter reporter (p21-LUC) (FIG. 7B), along with an expression vector for a well-known p53 activator (Zac1).

Another test deals with HeLa/shp53 cells. Nature of the test: MTT cell viability assay, HeLa vs HeLa/shp53. The settings on record: endogenous p53 silenced; 24, 48, 72 hours. The procedure:
as §3
To understand the functional role that endogenous p53 plays in the cytotoxic effects of DXR and NSC745885, we measured cell viability of HeLa or HeLa/shp53 cells using MTT cell viability assay. In this assay, endogenous p53 is silenced, both in the presence or absence of the drugs (FIG. 8). […]
On the technique in general: Formazan colour is commonly taken as a measure of viable cells.

A further test relates to p53 and p21. Nature of the test: p53 and p21 protein expression, immunoblot. The settings on record: HeLa cells, MG132 1 uM or 10 uM added 3 hours before harvesting; only at lower concentrations of NSC745885. The protocol:
as §1
Cell cycle regulatory protein p21 is one of p53's targets. […] In this experiment, HeLa cells were treated with the indicated concentrations of DXR or NSC745885 for 12 hours and then assessed by immunoblot (FIG. 6A) and RT-PCR (FIG. 6B).
In FIG. 6C, HeLa cells were treated with the indicated concentrations of NSC745885 for 12 hours; proteasome inhibitor MG132 (1 uM or 10 uM) was added 3 hours before harvesting. Cell protein extracts were tested with anti-p53 and anti-p21 antibodies. The results are representative of two independent experiments.

Where a SMILES comes first, the peptide text is derived from it. The star is where a group is joined. Cbz = O=C(OCc1ccccc1)*

These results are taken from patent publication US8772321B2, “Heteroannelated anthraquinone derivatives for inhibiting cancers” (National Defense Medical Center, priority 2008, dated 2014).

On to `COc1cccc2c1C(=O)c1c(O)c3c(c(O)c1C2=O)C[C@@](O)(C(=O)CO)C[C@@H]3O[C@H]1C[C@H](N)[C@H](O)[C@H](C)O1` [DXR, doxorubicin, reference compound], for which the “DNA damage (phosphorylation of γ-H2A.X, immunoblot)” value in the test with HeLa cells [1] is “strongly induced DNA damage”. Moreover, the cell cycle arrest result in the test with HeLa cells [2] is reported as “cell cycle arrest in S phase”. The “induction of apoptosis (cleaved PARP, caspase 3, DNA fragmentation)” value in the test with HeLa cells [3] is “strongly induced”. Besides, the “LC3B-II fragment formation (autophagic activation)” value in the test with HeLa cells [4] is “LC3B-II fragment formation”. Besides, the “autophagosome formation (LC3 aggregation, GFP-LC3)” value in the test on HeLa cells [5] was “autophagosome formation”. In the test on HeLa cells [6], the “senescence rate (SA-β-galactosidase staining)” value turned out to be 73%. Further, in test [7], the “Zac1-induced p53-dependent reporter activity” value is given as “inhibited Zac1-induced activity”. Also, the “sensitivity (cell viability, MTT) in HeLa/shp53 versus HeLa cells” value in the test on HeLa/shp53 cells is “dependent on endogenous p53 for cell killing”.

In the case of `CC(C)C[C@@H](C=O)NC(=O)[C@H](CC(C)C)NC(=O)[C@H](CC(C)C)NC(=O)OCc1ccccc1` [MG132, reference compound] (Cbz-Leu-Leu-Leu-aldehyde), in the test on p53 and p21, the “effect of MG132 on p53 and p21 degradation by NSC745885” value was “attenuate the degradation of p53 and p21”.
